Among the data in patent US10125134B2 (Mirati Therapeutics, Inc., priority 2016, dated 2018) are POC and IC50 values, retold here.

For one assay, the target named is KRas G12C (Homo sapiens, UniProt P01116, C118S/C51S/C80L/G12C). The assay can be described thus: KRas G12C Modification Assay (LCMS detection of covalent adduct). It is filed as binding. The settings on record: normalized percent of control; tested at 5 μM concentration for 3 hours. The method, boiled down: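 Cys-light KRas G12C mutant protein incubated with compound in K-Ras assay buffer, reactions quenched at set time points with 25 mM acetic acid and analysed by intact-protein LC/MS on a C-3 column. Deconvoluted mass heights expressed as percent of control (POC) relative to compound-free protein.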

Assay [1] concerns NCI-H358 cells (express KRas G12C), Phospho-ERK. The experiment in a line: Cellular inhibition of KRas G12C: Phospho-ERK in NCI-H358 cells. It is filed as cell-based. The settings on record: pERK(Thr202/Tyr204) normalized with GAPDH, NCI-H358 cells, 3 hours, read-out: IC50. The method, boiled down:
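IC50 derived by 4-parameter fit of GAPDH-normalized pERK(Thr202/Tyr204) signal, as percent of DMSO control. Signal came from in-cell immunodetection with infrared secondaries after 3 h compound exposure of KRas G12C NCI-H358 cells at 0.5% DMSO.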

Structures are written as SMILES. Read-outs that look alike come from different tables or passages of the source.

By IC50 is commonly meant the concentration that gives 50% inhibition.

On to `CC#CC(=O)N1CCN(c2nc(OC[C@@H]3CCCN3C)nc3c2CCN(c2cccc(C)c2C)C3)C[C@@H]1CC#N` [Example 389, 2-((S)-1-(but-2-ynoyl)-4-(7-(2,3-dimethylphenyl)-2-(((S)-1-methylpyrrolidin-2-yl)methoxy)-5,6,7,8-tetrahydropyrido[3,4-d]pyrimidin-4-yl)piperazin-2-yl)acetonitrile], for which the POC result on KRas G12C was “C (“C”>50% POC)”. Moreover, the IC50 in assay [1] (Homo sapiens, NCI-H358, 3 h) was over 1 µM.

Take `C=CC(=O)N1CCN(c2nc(OC[C@@H]3[C@@H](O)CCN3C)nc3c2CCN(c2cccc4ccccc24)C3)C[C@@H]1CC#N` [Example 390, 2-((S)-1-acryloyl-4-(2-(((2R,3S)-3-hydroxy-1-methylpyrrolidin-2-yl)methoxy)-7-(naphthalen-1-yl)-5,6,7,8-tetrahydropyrido[3,4-d]pyrimidin-4-yl)piperazin-2-yl)acetonitrile]: the POC entry at KRas G12C is reported as “C (“C”>50% POC)”. Also, the IC50 in assay [1] (Homo sapiens, NCI-H358, 3 h) lay in the range of 0.0001 to 1 µM.

`CC#CC(=O)N1CCN(c2nc(OC[C@@H]3CCCN3C)nc3c2CCN(c2cccc4cccc(Cl)c24)C3)C[C@@H]1CC#N` [Example 391, 2-((S)-1-(but-2-ynoyl)-4-(7-(8-chloronaphthalen-1-yl)-2-(((S)-1-methylpyrrolidin-2-yl)methoxy)-5,6,7,8-tetrahydropyrido[3,4-d]pyrimidin-4-yl)piperazin-2-yl)acetonitrile]: the POC entry on KRas G12C was “C (“C”>50% POC)”. The IC50 in assay [1] (Homo sapiens, NCI-H358, 3 h) is 0.0001 to 1 µM.

On to `C=CC(=O)N1CCN(c2nc(OC[C@@H]3CCCN3C)nc3c2CCN(c2cccc(C)c2C)C3)C[C@@H]1CC#N` [Example 393, 2-((S)-1-acryloyl-4-(7-(2,3-dimethylphenyl)-2-(((S)-1-methylpyrrolidin-2-yl)methoxy)-5,6,7,8-tetrahydropyrido[3,4-d]pyrimidin-4-yl)piperazin-2-yl)acetonitrile], for which the POC result at KRas G12C is listed as “C (“C”>50% POC)”. In addition, in assay [1] (Homo sapiens, NCI-H358, 3 h), the IC50 is 0.0001 to 1 µM.

Consider `C=CC(=O)N1CCN(c2nc(OC[C@]3(C)CCCN3C)nc3c2CCN(c2cccc4ccccc24)C3)CC1CC#N` (stereo partly drawn) [Example 394, 2-(1-acryloyl-4-(2-(((S)-1,2-dimethylpyrrolidin-2-yl)methoxy)-7-(naphthalen-1-yl)-5,6,7,8-tetrahydropyrido[3,4-d]pyrimidin-4-yl)piperazin-2-yl)acetonitrile], for which the POC result on KRas G12C is listed as “C (“C”>50% POC)”. The IC50 in assay [1] (Homo sapiens, NCI-H358, 3 h) is 0.0001 to 1 µM.

With `C=CC(=O)N1CCN(c2nc(OC[C@@H]3CCCN3CC3CC3)nc3c2CCN(c2cccc4ccccc24)C3)CC1CC#N` (stereo partly drawn) [Example 395, 2-(1-acryloyl-4-(2-(((S)-1-(cyclopropylmethyl)pyrrolidin-2-yl)methoxy)-7-(naphthalen-1-yl)-5,6,7,8-tetrahydropyrido[3,4-d]pyrimidin-4-yl)piperazin-2-yl)acetonitrile], at KRas G12C, the POC entry is “C (“C”>50% POC)”. Further, the IC50 in assay [1] (Homo sapiens, NCI-H358, 3 h) lay in the range of 0.0001 to 1 µM.

Regarding `C=CC(=O)N1CCN(c2nc(OCC(C)(C)N(C)C)nc3c2CCN(c2cccc4ccccc24)C3)CC1CC#N` (stereo not shown) [Example 396, 2-(1-acryloyl-4-(2-(2-(dimethylamino)-2-methylpropoxy)-7-(naphthalen-1-yl)-5,6,7,8-tetrahydropyrido[3,4-d]pyrimidin-4-yl)piperazin-2-yl)acetonitrile], the POC result on KRas G12C was “C (“C”>50% POC)”. Moreover, in assay [1], the IC50 lay within 0.0001 to 1 µM.

For the compound `C=CC(=O)N1CCN(c2nc(OC[C@@H]3CCCN3CC(=O)N(C)C)nc3c2CCN(c2cccc4ccccc24)C3)CC1CC#N` (stereo partly drawn) [Example 397, 2-((2S)-2-(((4-(4-acryloyl-3-(cyanomethyl)piperazin-1-yl)-7-(naphthalen-1-yl)-5,6,7,8-tetrahydropyrido[3,4-d]pyrimidin-2-yl)oxy)methyl)pyrrolidin-1-yl)-N,N-dimethylacetamide], the POC entry at KRas G12C is reported as “C (“C”>50% POC)”. Moreover, the IC50 in assay [1] (Homo sapiens, NCI-H358, 3 h) was 0.0001 to 1 µM.
